The experiment concerns the target T1, human plasma protein factor Xa (Homo sapiens, UniProt P00742).
T1 construct: measure proteolytic activity of the enzyme (factor Xa); purchased Haematologic Technologies (Essex Junction, Vt.); host or cells: human plasma
Put plainly: Factor Xa IC50 determination (cleavage of chromogenic substrate S-2765). It is filed as biochemical. As to conditions: fXa 1 nM, S-2765 100 μM, Tris buffered saline pH 7.4, room temperature. From the text: This example illustrates methods for evaluating the compounds of the invention, along with results obtained for such assays. The in vitro and in vivo Factor Xa isoform activities of the inventive compounds can be determined by various procedures known in the art, such as a test for their ability to inhibit the activity of the Factor Xa isoform. […] The IC50 value is the concentration (in nM) of the compound required to provide 50% inhibition of Factor Xa isoform.
An in vitro assay for detecting and measuring inhibition activity against Factor Xa is as follows:
• The substrate S-2765 (Z-D-Arg-Gly-Arg-pNA.HCl) was obtained from Diapharma (West Chester, Ohio). Enzyme: • The human plasma protein factor Xa was purchased from Haematologic Technologies (Essex Junction, Vt.). Methods
All assays, which are performed in 96-well microtiter plates, measure proteolytic activity of the enzyme (factor Xa) by following cleavage of paranitroanilide substrate. The assay buffer used for proteolytic assays was Tris buffered saline (20 mM Tris, 150 mM NaCl, 5 mM CaCl2, 0.1% Bovine serum albumin (BSA), 5% Dimethly Sulfoxide (DMSO) pH 7.4). In a 96-well microtiter plate, inhibitor was serially diluted to give a range of concentrations from 0.01 nM to 10 μM (final). Duplicate sets of wells were assayed and control wells without inhibitor were included. Enzyme was added to each well,(fXa concentration=1nM), the plate was shaken for 5 seconds and then incubated for 5 minutes at room temperature. S2765 was added (100 μM final) and the plate was shaken for 5 seconds (final liquid volume in each well was 200 μl). The degree of substrate hydrolysis was measured at 405 nm on a Thermomax plate reader (Molecular Devices, Sunnyvale, Calif.) for 2 minutes. The initial velocities (mOD/min), for each range of inhibitor concentrations, were fitted to a four parameter equation using Softmax data analysis software. The parameter C, derived from the resulting curve-fit, corresponded to the concentration for half maximal inhibition (IC50).

From US7678913B2, “Ureas as factor Xa inhibitors” (Portola Pharmaceuticals, Inc., priority 2004, dated 2010) come the findings set out here.

T1 sequence (P00742 235-488 limits assumed): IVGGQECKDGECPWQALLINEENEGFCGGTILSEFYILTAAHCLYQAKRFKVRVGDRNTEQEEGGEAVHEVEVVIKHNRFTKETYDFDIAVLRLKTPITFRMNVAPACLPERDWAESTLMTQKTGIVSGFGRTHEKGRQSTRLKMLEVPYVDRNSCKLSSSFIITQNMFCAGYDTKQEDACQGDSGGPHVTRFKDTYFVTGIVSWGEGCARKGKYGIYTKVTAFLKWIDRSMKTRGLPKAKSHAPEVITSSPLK
T1 sequence (P00742 41-179 partner limits assumed): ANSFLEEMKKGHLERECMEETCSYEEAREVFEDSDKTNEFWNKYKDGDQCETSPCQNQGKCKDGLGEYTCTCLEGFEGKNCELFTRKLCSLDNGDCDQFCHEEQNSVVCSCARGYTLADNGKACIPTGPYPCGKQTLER

Consider `COc1ccccc1C(NC(=O)Nc1ccc(Cl)cc1)C(=O)Nc1ccc(N2CCCN(C)CC2)cc1` (stereo not shown) [Example 111, N-[4-(4-methyl-homopiperazinyl)phenyl]-2-(2-methoxyphenyl)-2-(4-chlorophenylaminocarbonylamino)-acetamide], for which the 50% inhibitory concentration (IC50) was at most 100 nM.

Molecule `O=C(Nc1ccc(Cl)cc1)N[C@@H](C(=O)Nc1ccc(-n2ccccc2=O)cc1F)c1ccccc1` [Example 140, (2R) N-[4-(2-pyridon-1-yl)-2-fluorophenyl]-2-phenyl-2-(4-chlorophenylaminocarbonylamino)-acetamide] yielded an IC50 of at most 100 nM.

The molecule `O=C(Nc1ccc(Cl)cc1)NC(C(=O)Nc1ccc(-c2cccc[n+]2[O-])cc1)c1ccccc1Br` (stereo not shown) [Example 79, N-[4-(N-oxo-pyridin-2-yl)phenyl]-2-(2-bromophenyl)-2-(4-chlorophenylaminocarbonylamino)-acetamide] registered an IC50 of at most 100 nM.

`Cc1ccccc1C(NC(=O)Nc1ccc(Cl)cc1)C(=O)N1CCC(N2CCOCC2=O)CC1` (stereo not shown) [Example 147, 4-(3-morpholinon-4-yl)piperidin-1-yl-2-(2-methylphenyl)-2-(4-chlorophenylaminocarbonylamino)-acetamide]: the IC50 was 100 to 500 nM.

Turning to `Cc1ccccc1C(NC(=O)Nc1ccc(Cl)cc1)C(=O)Nc1ccc(C2=NCCN2C)cc1` (stereo not shown) [Example 84, N-[4-(1-methyl-4,5-dihydro-1H-imidazol-2-yl)phenyl]-2-(2-methylphenyl)-2-(4-chlorophenylaminocarbonylamino)-acetamide], the IC50 was at most 100 nM.

`CNC(=O)CC(NC(=O)Nc1ccc(Cl)cc1)C(=O)Nc1ccc(C2=NCCN2C)cc1` (stereo not shown) [Example 70, N-[4-(1-methyl-4,5-dihydro-1H-imidazol-2-yl)phenyl]-2-(methylamino-carbonylmethyl)-2-(4-chlorophenylaminocarbonylamino)-acetamide] had an IC50 of 100 to 500 nM.

Molecule `N=C(c1ccc(N2C(=O)C(NC(=O)Nc3ccc(Cl)cc3)Cc3ccccc32)cc1)N1CCCC1` (stereo not shown) [Example 135] yielded an IC50 of at least 500 nM.

`Cc1ccccc1C(NC(=O)Nc1ccc(Cl)cc1)C(=O)Nc1ccc(-c2ccccc2CN(C)C)cc1` (stereo not shown) [Example 89, N-[4-(2-dimethylaminomethyl-phenyl)phenyl]-2-(2-methylphenyl)-2-(4-chlorophenylaminocarbonylamino)-acetamide] had an IC50 of at most 100 nM.

Molecule `CN1CCC(N2CCN(C(=O)C(NC(=O)Nc3ccc(Cl)cc3)c3ccccc3Br)CC2)CC1` (stereo not shown) [Example 83] had an IC50 of at most 100 nM.

With `CN(C)C(=N)c1ccc(NC(=O)C(NC(=O)Nc2ccc(Cl)cc2)c2ccccc2Br)cc1` (stereo not shown) [Example 80, N-[4-(dimethylaminoimino)phenyl]-2-(2-bromophenyl)-2-(4-chlorophenylaminocarbonylamino)-acetamide], the IC50 is at most 100 nM.

`CC(=N)N1CCC(CNC(=O)C(NC(=O)Nc2ccc(Cl)cc2)c2ccccc2F)CC1` (stereo not shown) [Example 54, N-[(N-acetimidyl-piperidin-4-yl)methyl]-2-(2-fluorophenyl)-2-(4-chlorophenylaminocarbonylamino)-acetamide]: the IC50 was in the range of 100 to 500 nM.

On to `Cc1ccccc1C(NC(=O)Nc1ccc(Cl)cc1)C(=O)Nc1ccc(N2CCCN(C)CC2)cc1` (stereo not shown) [Example 92, N-[4-(4-methyl-homopiperazinyl)phenyl]-2-(2-methylphenyl)-2-(4-chlorophenylaminocarbonylamino)-acetamide], for which the concentration for half-maximal inhibition (IC50) is at most 100 nM.

Take `CN(C)C(=O)CC(NC(=O)Nc1ccc(Cl)cc1)C(=O)Nc1ccc(C2=NCCN2C)cc1` (stereo not shown) [Example 63, N-[4-(1-methyl-4,5-dihydro-1H-imidazol-2-yl)phenyl]-2-dimethylaminocarbonylmethyl-2-(4-chlorophenylaminocarbonylamino)-acetamide]: the IC50 was at least 500 nM.

For `CNC(=N)c1ccc(NC(=O)C(NC(=O)Nc2ccc(Cl)cc2)c2ccccc2)c(F)c1` (stereo not shown) [Example 37, N-(4-methylaminoimino-2-fluorophenyl)-2-phenyl-2-(4-chlorophenylamino-carbonylamino)-acetamide], the concentration for half-maximal inhibition (IC50) was at most 100 nM.

`CN(C)C(=N)c1ccc(NC(=O)C(NC(=O)Nc2ccc(Cl)cc2)c2ccccc2Cl)cc1` (stereo not shown) [Example 100, N-[4-(dimethylaminoimino)phenyl]-2-(2-chlorophenyl)-2-(4-chlorophenylaminocarbonylamino)-acetamide] showed an IC50 of at most 100 nM.

The molecule `Cc1ccccc1C(NC(=O)Nc1ccc(Cl)cc1)C(=O)NC1CCN(C(C)C)CC1` (stereo not shown) [Example 90, N-(1-isopropylpiperidin-4-yl)-2-(2-methylphenyl)-2-(4-chlorophenylamino-carbonylamino)-acetamide] returned an IC50 of at least 500 nM.

Molecule `CN1CCN=C1c1ccc(NC(=O)C(NC(=O)Nc2ccc(Cl)cc2)c2ccsc2)cc1` (stereo not shown) [Example 13, N-[4-(1-methyl-4,5-dihydro-1H-imidazol-2-yl)phenyl]-2-(3-thienyl)-2-(4-chlorophenylaminocarbonylamino)-acetamide] returned a half-inhibitory concentration (IC50) of at most 100 nM.

Molecule `N=C(c1ccc(NC(=O)C(NC(=O)Nc2ccc(Cl)cc2)c2ccccc2Br)cc1)N1CCCC1` (stereo not shown) [Example 81] had a half-maximal inhibitory concentration (IC50) of at most 100 nM.

With `CCN(C)C(=N)c1ccc(NC(=O)C(NC(=O)Nc2ccc(Cl)cc2)c2ccccc2)c(F)c1` (stereo not shown) [Example 34, N-[4-(N-methyl-N-ethylaminoimino)-2-fluorophenyl]-2-phenyl-2-(4-chlorophenylaminocarbonylamino)-acetamide], the half-maximal inhibitory concentration (IC50) is at most 100 nM.

In turn, `O=C(Nc1ccc(Cl)cc1)NC(C(=O)Nc1ccc(-c2ccncc2)cc1)c1ccccc1F` (stereo not shown) [Example 49, N-[4-(pyridin-4-yl)phenyl]-2-(2-fluorophenyl)-2-(4-chlorophenylaminocarbonylamino)-acetamide] gave an IC50 of 100 to 500 nM.

In turn, `CN1CCN=C1c1ccc(N2C(=O)C(NC(=O)Nc3ccc(Cl)cc3)Cc3ccccc32)cc1` (stereo not shown) [Example 136, 1-[4-(1-methyl-4,5-dihyrdo-1H-imidazol-2-yl)phenyl]-3-(4-chlorophenylaminocarbonylamino)-3,4-dihydroquinolin-2-one] gave a half-inhibitory concentration (IC50) of at most 100 nM.

With `N=C(c1ccc(NC(=O)C(NC(=O)Nc2ccc(Cl)cc2)c2ccccc2F)cc1)N1CCCCC1` (stereo not shown) [Example 42], the IC50 was at most 100 nM.

`COc1ccccc1C(NC(=O)Nc1ccc(Cl)cc1)C(=O)NCC1CCN(c2ccncc2)CC1` (stereo not shown) [Example 108, N-[1-(pyridin-4-yl)piperidin-4-yl]methyl-2-(2-methoxyphenyl)-2-(4-chlorophenylaminocarbonylamino)-acetamide] displayed a concentration for half-maximal inhibition (IC50) of at most 100 nM.

In the case of `Cc1ccccc1C(NC(=O)Nc1ccc(Cl)cc1)C(=O)Nc1ccc(N(C)c2ccncc2)cc1` (stereo not shown) [Example 96, N-[4-(N-methyl-N-pyridin-4-yl-amino)phenyl]-2-(2-methylphenyl)-2-(4-chlorophenylaminocarbonylamino)-acetamide], the IC50 was at most 100 nM.

`CN1CCN=C1c1ccc(NC(=O)[C@@H](CC(=O)O)NC(=O)Nc2ccc(Cl)cc2)cc1` [Example 62, (2R) N-[4-(1-methyl-4,5-dihydro-1H-imidazol-2-yl)phenyl]-2-carboxymethyl-2-(4-chlorophenylaminocarbonylamino)-acetamide] displayed an IC50 of 100 to 500 nM.

In the case of `N=C(c1ccc(NC(=O)C(NC(=O)Nc2ccc(Cl)cc2)c2cccs2)cc1)N1CCCC1` (stereo not shown) [Example 21], the IC50 was at most 100 nM.

With `O=C(Nc1ccc(Cl)cc1)N[C@H](C(=O)Nc1ccc(-n2ccccc2=O)cc1)c1ccccc1` [Example 137, (2S) N-[4-(2-pyridon-1-yl)phenyl]-2-phenyl-2-(4-chlorophenylaminocarbonylamino)-acetamide], the IC50 is at most 100 nM.

Molecule `CN(C)C(=N)c1ccc(NC(=O)C(NC(=O)Nc2ccc(Cl)cc2)c2ccccc2F)cc1` (stereo not shown) [Example 43, N-[4-(dimethylaminoimino)phenyl]-2-(2-fluorophenyl)-2-(4-chlorophenylaminocarbonylamino)-acetamide] returned an IC50 of at most 100 nM.

In turn, `CN1CCCN(C2CCN(C(=O)[C@H](NC(=O)Nc3ccc(Cl)cc3)c3ccccc3)CC2)CC1` [Example 154, (2R) 4-(4-methylhomopiperazin-1-yl)piperidin-1-yl-2-phenyl-2-(4-chlorophenylaminocarbonylamino)-acetamide] displayed an IC50 of 100 to 500 nM.

Turning to `CN1CCC(N2CCCN(C(=O)[C@H](NC(=O)Nc3ccc(Cl)cc3)c3ccccc3)CC2)CC1` [Example 156, (2R) 4-(1-methylpiperidin-4-yl)homopiperazin-1-yl-2-phenyl-2-(4-chlorophenylaminocarbonylamino)-acetamide], the IC50 was at least 500 nM.

As for `Cc1ccccc1C(NC(=O)Nc1ccc(Cl)cc1)C(=O)Nc1ccc(C(=O)N2CCCC2)cc1` (stereo not shown) [Example 94, N-[4-(pyrrolidin-1-ylcarbonyl)phenyl]-2-(2-methylphenyl)-2-(4-chlorophenylaminocarbonylamino)-acetamide], the half-inhibitory concentration (IC50) was at most 100 nM.
